Literature values as cited in patent US20070197592A1, “Use of Paliperidone for the Treatment of Substance Abuse” (priority 2005, published 2007).

Experiments:
golden hamster = details: cited from earlier work
animals = details: cited from earlier work; for water or food consumption: at the same time as the inhibition of alcohol consumption

| Structure (SMILES) | alcohol drinking (golden hamster) | water or food intake (golden hamster) | water or food consumption (animals) | alcohol consumption (animals) |
| --- | --- | --- | --- | --- |
| O=c1c(-c2ccc(O)cc2)coc2cc(O[C@@H]3O[C@H](CO)[C@@H](O)[C@H](O)[C@H]3O)ccc12 [Daidzin] | decreases alcohol drinking | without producing a decrease in water or food intake |  |  |
| C=CCN1CC[C@]23c4c5ccc(O)c4O[C@H]2C(=O)CC[C@@]3(O)[C@H]1C5 [naloxone] |  |  | impaired water or food consumption | inhibit alcohol consumption |
| O=C1CC[C@@]2(O)[C@H]3Cc4ccc(O)c5c4[C@@]2(CCN3CC2CC2)[C@H]1O5 [naltrexone] |  |  | impaired water or food consumption | inhibit alcohol consumption |
| CN[C@H]1CC[C@@H](c2ccc(Cl)c(Cl)c2)c2ccccc21 [sertraline] |  |  | impaired water or food consumption | inhibit alcohol consumption |
